According to US11352317B2, “Rosin-based small molecular weight hydrogelator and its application” (Jiangnan University, priority 2019, dated 2022):

What was measured:
[1] = Steady-state shear of comparative aqueous solutions; type: physicochemical; conditions: 5 mmol·L^−1 aqueous solution; for viscosity of the system (steady-state shear): high or low shear rates
[2] = Determination of gel behavior (vial inversion); type: physicochemical
Procedure: To 1 mL of deionized water, 6-dehydroabietylamide-N,N-dimethyl-hexylamine oxide was added (concentrations were 4 mmol·L^−1, 10 mmol·L^−1, 15 mmol·L^−1, 20 mmol·L^−1, and 25 mmol·L^−1, respectively). The solution was heated to 40° C. to completely dissolve the 6-dehydroabietylamide-N,N-dimethyl-hexylamine oxide, and then allowed to stand at room temperature, and the solution state was investigated.
It can be seen from the photograph of the appearance of a gel formed by 6-dehydroabietylamide-N,N-dimethyl-hexylamine oxide in FIG. 5 (concentrations from left to right were 4 mmol·L^−1, 10 mmol·L^−1, 15 mmol·L^−1, 20 mmol·L^−1, and 25 mmol·L^−1, respectively) that when the concentration of 6-dehydroabietylamide-N,N-dimethyl-hexylamine oxide was greater than 4 mmol·L^−1, the 6-dehydroabietylamide-N,N-dimethyl-hexylamine oxide can support its own weight without flowing after invertion, indicating the formed gel has excellent viscoelasticity.
In a hydrogel formed by 4 mmol·L^−1 of 6-dehydroabietylamide-N,N-dimethyl-hexylamine oxide, the critical gelling concentration of the 6-dehydroabietylamide-N,N-dimethyl-hexylamine oxide was only 0.176%. Upon conversion, on average, each gelling agent molecule can immobilize 13,889 water molecules, showing extremely high gelling efficiency.

[3] = Cryo-TEM microstructure of the gel system; type: physicochemical; conditions: 5 mmol·L^−1 hydrogel
Procedure: Sample preparation was carried out using an environment controlled low temperature sample preparation device Cryoplunge TM3, and the ambient temperature was fixed at 25° C. The relative humidity in the device cavity was adjusted to over 90%, about 5 μL of the sample was pipetted onto the surface of the micro-grid, and the droplets on the surface of the micro-gate were absorbed by patting the sample with the filter paper on both sides of Cp3 to obtain a very thin liquid film. The sample was then quickly inserted into liquid ethane cooled liquid nitrogen. The frozen sample was transferred to a sample rod cooled with liquid nitrogen and transferred to a transmission electron microscope for observation at an operating voltage of 120 kV. It can be seen from the in situ frozen transmission electron micrograph of a hydrogel sample formed by 5 mmol·L^−1 6-dehydroabietylamide-N,N-dimethyl-hexylamine oxide in FIG. 8 that the microscopic morphology of the hydrogel was a relatively rigid nanofiber having a cross-sectional diameter of about 10 nm and a length of more than 2 μm.
The reason was that the 6-dehydroabietylamide-N,N-dimethyl-hexylamine oxide molecule formed a left-handed helical fiber structure having a diameter of about 10 nm by molecular self-assembly. […]

[4] = Circular dichroism spectrum of gel; type: physicochemical; conditions: 5 mmol·L^−1 gel, 300-180 nm
Procedure: The measurement was carried out on a circular dichroism spectrometer model MOS-450. The signal was recorded at intervals of 0.1 nm within the wavelength range of 300-180 nm. Gel samples were measured using a 0.1 mm quartz sample cell.

[5] = Gel sustained-release performance test (in vitro release of embedded Rhodamine B); type: physicochemical; conditions: embedded in 20 mmol·L^−1 hydrogel, 37° C.
Procedure: Rhodamine B was embedded in a hydrogel formed by 20 mmol·L^−1 6-dehydroabietylamide-N,N-dimethyl-hexylamine oxide and in vitro release experiments were carried out in a constant temperature oscillating water bath at 37° C. The absorbance of the release solution was measured by an ultraviolet-visible spectrophotometer to obtain an in vitro release curve. […] It can be seen that the hydrogel formed by 6-dehydroabietylamide-N,N-dimethyl-hexylamine oxide had good sustained-release ability and can be used in the fields of drug sustained release and so on.

L929 cells = assay: 3D cell incubation in hydrogel, FDA/PI staining; type: cell-based; conditions: 3D incubation in hydrogel, 24 h, 48 h and 96 h
Procedure: L929 cells were encapsulated in a 6-dehydroabietylamide-N,N-dimethyl-hexylamine oxide gel under sterile conditions for 3D cell incubation. The cell suspension was added into the 6-dehydroabietylamide-N,N-dimethyl-hexylamine oxide solution with a sol state, and a cell/hydrogel system was formed within 30 s, and further incubated at 37° C. for 15 min. Thereafter, 2 mL of RPMI-1640 medium containing 10% FBS fetal bovine serum and 1% penicillin/streptomycin was gently added to the incubation dish, and the cell/hydrogel system was incubated in a humidified atmosphere of 37° C. and 5% CO2. The medium was replaced after 1 h of incubation and then replaced every 12 h. After incubation for 24 h, 48 h and 96 h, the cell/hydrogel system was stained with FDA/PI and the cells were observed by a confocal laser scanning microscope. […] It can be seen that 6-dehydroabietylamide-N,N-dimethyl-hexylamine oxide hydrogel can be used as a 3D cell incubation scaffold and had potential application in cell therapy and tissue regeneration.

[6] = Determination of surface tension (ring method); type: physicochemical; conditions: aqueous, 25° C.
Procedure: Determination of surface tension. A series of aqueous surfactant solutions having different concentrations were prepared, and the surface tension was measured by a ring method at 25° C., and the surface tension curve was plotted.

[7] = Preparation of O/W type gel emulsion at different oil-water ratios; type: physicochemical; conditions: 20 mmol·L^−1 stabilizer, oil phase volume fraction 10% to 90%
Procedure: An amount of 6-dehydroabietylamide amine oxide was added to a 22 mm (d)×52 mm (h) glass vial with a total volume of 10 mL. After adding a certain amount of deionized water, the vial was heated in a water bath at 50° C. until the 6-dehydroabietylamide amine oxide was completely dissolved to obtain a transparent solution. Different volumes of oil were added to the 6-dehydroabietylamide amine oxide solution (the volume ratios of 6-dehydroabietylamide amine oxide solution to oil were 1:9, 2:8, 3:7, 4:6, 5:5, 6:4, 7:3, 8:2, and 9:1, and total volume was 4 mL), then the mixture was emulsified at 11,000 r/min using an ultraturrax homogenizer (IKA T18 basic, S18N-10G head) for 2 min. The emulsion was allowed to stand and cool at a low temperature to form a white gel emulsion.

[8] = Gel emulsion stability test; type: physicochemical; conditions: 20° C.; for Stability: gel emulsion, 0.22% stabilizer
Procedure: To the 0.22% solution of 6-dehydroabietylamide amine oxide, different volumes of oil were added (the volume ratios of 6-dehydroabietylamide amine oxide solution to oil were 0.2:9.8, 3:7, 5:5,7:3, and 9.9: 0.1, and total volume was 4 mL), and then the mixture was emulsified at 11,000 r/min using an ultraturrax homogenizer (IKA T18 basic, S18N-10G head) for 2 min. The emulsion was allowed to stand and cool at a low temperature to form a white gel emulsion.
The prepared gel emulsion was placed in a 20° C. incubator, and the stability of the gel emulsion was observed. When the concentration of 6-dehydroabietylamide-N,N-dimethyl-hexylamine oxide as stabilizer was 0.22% of the mass of the continuous phase, and the volume fraction of the disperse phase was in the range of 1%-98%, a gel emulsion was formed.

SMILES | gel formation [1] | viscosity of the system (steady-state shear) [1] | water molecules immobilized per gelling agent molecule (on average) ([2]; at critical gelling concentration, upon conversion) | concentration at which gel supports its own weight without flowing after inversion ([2]; deionized water, dissolved at 40° C., stood at room temperature) | critical gelling concentration ([2]; in water, hydrogel formed by 4 mmol·L^−1, room temperature) | cross-sectional diameter of nanofiber [3] | length of nanofiber [3] | chiral aggregate structure of nanofiber (CD signal) [4] | release rate of Rhodamine B ([5]; in 40 h) | release rate of Rhodamine B ([5]; within 5 h) | viability and proliferation of L929 cells in the gel (L929 cells) | critical micelle concentration [6] | γcmc (surface tension at cmc) [6] | stability of dodecane/hydrogel emulsion [7] | stability of the gel emulsion after placing for one year ([8]; 0.22% of the mass of the continuous phase, disperse phase volume fraction 1%-98%) | Stability ([8]; continuous phase 0.2, disperse phase 9.8) | Stability ([8]; continuous phase 3, disperse phase 7) | Stability ([8]; continuous phase 5, disperse phase 5) | Stability ([8]; continuous phase 7, disperse phase 3) | Stability ([8]; continuous phase 9.9, disperse phase 0.1)
CC(C)c1ccc2c(c1)CCC1C(C)(C(=O)NCC[N+](C)(C)[O-])CCCC21C (stereo not shown) [2-dehydroabietylamide-N,N-dimethyl-ethylamine oxide] | neither 2-dehydroabietylamide-N,N-dimethyl-ethylamine oxide nor 3-dehydroabietylamide-N,N-dimethyl-propylamine oxide could form a gel | comparable to the viscosity of water |  |  |  |  |  |  |  |  |  |  |  |  |  |  |  |  |  | 
CC(C)c1ccc2c(c1)CCC1C(C)(C(=O)NCCCCCC[N+](C)(C)[O-])CCCC21C (stereo not shown) [6-dehydroabietylamide-N,N-dimethyl-hexylamine oxide] |  |  | 13,889 | greater than 4 mmol·L^−1 | 0.176% | about 10 nm | more than 2 μm | left-handed helix | 76% | 28% | higher viability and proliferative ability | 0.56 mmol/L | 35 mN·m^−1 | no phase separation occurs | did not undergo demulsification | No demulsification occurs after incubation | No demulsification occurs after incubation | No demulsification occurs after incubation | No demulsification occurs after incubation | No demulsification occurs after incubation
CC(C)c1ccc2c(c1)CCC1C(C)(C(=O)NCCC[N+](C)(C)[O-])CCCC21C (stereo not shown) [3-dehydroabietylamide-N,N-dimethyl-propylamine oxide] | neither 2-dehydroabietylamide-N,N-dimethyl-ethylamine oxide nor 3-dehydroabietylamide-N,N-dimethyl-propylamine oxide could form a gel | comparable to the viscosity of water |  |  |  |  |  |  |  |  |  |  |  |  |  |  |  |  |  | 
